# What was measured:
# [1] = tested on: HepG2; test: Cytotoxicity against human HepG2 cells after 24 hrs by MTT assay; format: functional, cell-based; conditions: HepG2, 24 h
# [2] = tested on: HeLa; test: Cytotoxicity against human HeLa cells after 24 hrs by MTT assay; format: functional, cell-based
# [3] = tested on: Staphylococcus aureus; test: Antibacterial activity against Staphylococcus aureus MTCC 96 after 24 hrs by well diffusion method; format: functional; conditions: MTCC 96, 24 h
# [4] = tested on: Raoultella planticola; test: Antibacterial activity against Klebsiella planticola MTCC 530 after 24 hrs by well diffusion method; format: functional; conditions: MTCC 530, 24 h
# [5] = tested on: Bacillus subtilis; test: Antibacterial activity against Bacillus subtilis MTCC 121 after 24 hrs by well diffusion method; format: functional; conditions: MTCC 121, 24 h
# [6] = tested on: COLO 205; test: Cytotoxicity against human COLO205 cells after 24 hrs by MTT assay; format: functional, cell-based; conditions: COLO 205, 24 h
# [7] = tested on: Staphylococcus aureus; test: Antibacterial activity against Staphylococcus aureus MLS16 MTCC 2940 after 24 hrs by well diffusion method; format: functional; conditions: MLS16 MTCC 2940, 24 h
# [8] = tested on: Pseudomonas aeruginosa; test: Antibacterial activity against Pseudomonas aeruginosa MTCC 2453 after 24 hrs by well diffusion method; format: functional; conditions: MTCC 2453, 24 h
# [9] = tested on: Escherichia coli; test: Antibacterial activity against Escherichia coli MTCC 739 after 24 hrs by well diffusion method; format: functional; conditions: MTCC 739, 24 h
# [10] = tested on: A549; test: Cytotoxicity against human A549 cells after 24 hrs by MTT assay; format: functional, cell-based; conditions: A549, 24 h
# [11] = tested on: Micrococcus luteus; test: Antibacterial activity against Micrococcus luteus MTCC 2470 after 24 hrs by well diffusion method; format: functional; conditions: MTCC 2470, 24 h
Compound,IC50 [1] [µM],IC50 [2] [µM],MIC [3] [mg/L],MIC [4] [mg/L],MIC [5] [mg/L],IC50 [6] [µM],MIC [7] [mg/L],MIC [8] [mg/L],MIC [9] [mg/L],IC50 [10] [µM],MIC [11] [mg/L]
Cc1nn(CC(=O)NC2CC2)c2nc3ccccc3c(C)c12,15.2,16.7,7.8 to 125,7.8 to 125,7.8 to 125,11.9,7.8 to 125,7.8 to 125,7.8 to 125,14.3,7.8 to 125
O=C(Cn1nc(C(F)(F)F)c2c(-c3ccccc3)c3ccccc3nc21)NCc1ccco1,26.8,27.2,7.8 to 125,7.8 to 125,7.8 to 125,28.1,7.8 to 125,7.8 to 125,7.8 to 125,22.4,7.8 to 125
Cc1nn(CC(=O)N2CCCCC2)c2nc3ccccc3c(C)c12,15.5,17,7.8 to 125,7.8 to 125,7.8 to 125,11.9,7.8 to 125,7.8 to 125,7.8 to 125,20.5,7.8 to 125
Cc1nn(CC(=O)Nc2ccc([N+](=O)[O-])cc2)c2nc3ccccc3c(C)c12,17.2,18.5,7.8 to 125,7.8 to 125,7.8 to 125,20.1,7.8 to 125,7.8 to 125,7.8 to 125,15.9,7.8 to 125
Cc1nn(CC(=O)NCc2ccco2)c2nc3ccccc3c(C)c12,13.2,14.4,7.8 to 125,7.8 to 125,7.8 to 125,15.6,7.8 to 125,7.8 to 125,7.8 to 125,14.9,7.8 to 125
CCNC(=O)Cn1nc(C(F)(F)F)c2c(-c3ccccc3)c3ccccc3nc21,22.2,26.5,7.8 to 125,7.8 to 125,7.8 to 125,18.9,7.8 to 125,7.8 to 125,7.8 to 125,29.5,7.8 to 125
Cc1nn(CC(=O)NC2CCCCC2)c2nc3ccccc3c(C)c12,10.8,14.2,7.8 to 125,7.8 to 125,7.8 to 125,20.1,7.8 to 125,7.8 to 125,7.8 to 125,12.6,7.8 to 125
CCNC(=O)Cn1nc(C(F)(F)F)c2c(C)c3ccccc3nc21,20.8,19.2,7.8 to 125,7.8 to 125,7.8 to 125,16.4,7.8 to 125,7.8 to 125,7.8 to 125,22.8,7.8 to 125
CCCCCCNC(=O)Cn1nc(C(F)(F)F)c2c(C)c3ccccc3nc21,19.6,21.7,7.8 to 125,7.8 to 125,7.8 to 125,22.2,7.8 to 125,7.8 to 125,7.8 to 125,20.5,7.8 to 125
O=C(Cn1nc(C(F)(F)F)c2c(-c3ccccc3)c3ccccc3nc21)N1CCCCC1,30.2,29.2,7.8 to 125,7.8 to 125,7.8 to 125,19.3,7.8 to 125,7.8 to 125,7.8 to 125,25.6,7.8 to 125
CCCNC(=O)Cn1nc(C(F)(F)F)c2c(-c3ccccc3)c3ccccc3nc21,23.4,23.7,7.8 to 125,7.8 to 125,7.8 to 125,22.1,7.8 to 125,7.8 to 125,7.8 to 125,25.6,7.8 to 125
O=c1[nH]cc(F)c(=O)[nH]1 [FLUOROURACIL],1.4,1.4,,,,1.9,,,,1.2,
CNC(=O)Cn1nc(C(F)(F)F)c2c(C)c3ccccc3nc21,18.9,17.2,7.8 to 125,7.8 to 125,7.8 to 125,12.8,7.8 to 125,7.8 to 125,7.8 to 125,11.3,7.8 to 125
Cc1c2ccccc2nc2c1c(C(F)(F)F)nn2CC(=O)NC1CCCCC1,29.6,23.4,7.8 to 125,7.8 to 125,7.8 to 125,24.5,7.8 to 125,7.8 to 125,7.8 to 125,28.2,7.8 to 125
